Key:
[1] = Permeability of the compound in human Caco2 cells; type: ADME, cell-based; conditions: Caco-2, read-out: permeability
SJSA-1 = test: Antiproliferative activity against human SJSA1 cells
[2] = target: E3 ubiquitin-protein ligase Mdm2 (Homo sapiens, UniProt Q00987); test: Binding affinity to HDM2 (unknown origin) by fluorescence polarization peptide displacement assay
[3] = AUC in mouse at 20 mg/kg, iv and 20 mg/kg, po; type: ADME, organism-based; conditions: plasma
[4] = Oral bioavailability in mouse at 20 mg/kg; type: ADME, organism-based; conditions: in vivo

Chain of E3 ubiquitin-protein ligase Mdm2 (Q00987 whole entry): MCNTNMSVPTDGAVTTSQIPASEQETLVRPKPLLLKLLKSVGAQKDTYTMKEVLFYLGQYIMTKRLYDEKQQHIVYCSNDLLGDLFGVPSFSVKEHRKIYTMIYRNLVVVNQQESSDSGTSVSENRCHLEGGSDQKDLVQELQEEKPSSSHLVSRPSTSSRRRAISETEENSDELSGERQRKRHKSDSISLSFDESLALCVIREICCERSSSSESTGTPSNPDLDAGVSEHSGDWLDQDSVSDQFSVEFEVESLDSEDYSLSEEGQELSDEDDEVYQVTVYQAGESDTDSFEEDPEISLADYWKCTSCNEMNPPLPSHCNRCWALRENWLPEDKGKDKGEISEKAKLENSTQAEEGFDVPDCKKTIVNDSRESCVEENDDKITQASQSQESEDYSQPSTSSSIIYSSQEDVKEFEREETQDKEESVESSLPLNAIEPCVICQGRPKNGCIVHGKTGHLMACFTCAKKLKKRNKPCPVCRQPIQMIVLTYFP

| SMILES | Papp [1] [×10⁻⁶ cm/s] | IC50 (SJSA-1) [µM] | IC50 [2] [µM] | AUC [3] [µM·h] | bioavailability [4] [%] |
| --- | --- | --- | --- | --- | --- |
| COc1ccc(C2=N[C@@H](c3ccc(Cl)cc3)[C@@H](c3ccc(Cl)cc3)N2C(=O)N2CCNC(=O)C2)c(OC(C)C)c1 [NUTLIN-3] | 12.6 | 1.9 |  |  |  |
| COCCOc1ccccc1N1CCN(C(=O)[C@]2(Oc3ccc(C(F)(F)F)cc3)CC[C@H](c3ccccc3)N(C(=O)c3cnccc3C(F)(F)F)C2)CC1 |  |  | > 10 |  |  |
| COCCOc1ccccc1N1CCN(C(=O)[C@]2(Oc3ccc(C(F)(F)F)cc3)CCCN(C(=O)c3cnccc3C(F)(F)F)C2)CC1 | 20.3 | 4.7 |  | 1.1 | 32 |
| C=CC[C@H]1N(C(=O)c2cnccc2C(F)(F)F)CCC[C@@]1(Oc1ccc(C(F)(F)F)cc1)C(=O)N1CCN(c2ccccc2OCCOC)CC1 |  | 1 |  |  |  |
| COc1ccccc1N1CCN(C(=O)[C@]2(Oc3ccc(C(F)(F)F)cc3)CCCN(C(=O)c3cnccc3C(F)(F)F)C2)CC1 | 15.8 | 5.5 |  | 1.9 | 19 |

From ChEMBL document CHEMBL3232918, “Core modification of substituted piperidines as novel inhibitors of HDM2-p53 protein-protein interaction” (Bioorg Med Chem Lett, 2014)
